SMILES | melting point
CC1CCCC(C)N1Cc1ccc2cc(NC(=O)C3(Cl)C=CC(c4ccccc4Cl)=CC3)ccc2n1 (stereo not given) | 162 to 164 °C
Nc1nc(COCC(F)(F)F)nc2nccnc12 | 145 to 147 °C
CC(C)(C)c1cc(C(C)(C)C)c2oc(-c3cccc([N+](=O)[O-])c3O)nc2c1 | 148 to 150 °C
CCC(C)(C)OC(=O)NC(C)(Cc1c[nH]c2ccccc12)C(=O)NCCc1ccccn1 (stereo not given) | 151 to 152 °C
O=c1cc(N2CCOCC2)nc2n1CC[C@@H](C(F)(F)F)N2 | 108 °C
COc1cc2c(cc1Nc1ncc(Cl)c(Nc3ccccc3S(C)(=O)=O)n1)CCN(CC(N)=O)CC2 | 111 to 123 °C
N#Cc1ccc2ccccc2c1O | 182 to 183 °C
COCC(=O)N(c1c(C)ccc2ccccc12)C(CCO)C(=O)OC (stereo not given) | 132 to 137 °C
O=c1[nH]c2cc(Cl)c([N+](=O)[O-])c(Cl)c2[nH]c1=O | 320 to 325 °C
CCOc1cc(=O)n(C)c2ccccc12 | 80 to 82 °C
CNC(=O)Nc1cc(CNc2ncccc2C(=O)Nc2ccc3cn(C)nc3c2)ccn1 | 205 to 207 °C
COC(=O)c1ccc(CNS(C)(=O)=O)cc1N | 120 to 121 °C
CC(C)C(=O)N[C@@H](CSC(=O)C(C)(C)C)C(=O)NCCSC(=O)c1ccccc1 | 112 to 114 °C
CCCc1nc2c(N)nc3ccccc3c2n1CC(C)(C)OCCS(C)(=O)=O | 203 to 206 °C
O=C(O)C(F)(CCC(F)(F)C(F)(F)C(F)(F)C(F)(F)F)C(F)(F)F (stereo not given) | 45 to 46 °C
CC1=C(C(O)(c2ccc(C)cc2)C2SCSCS2)CN(C)O1 (stereo not given) | 150 to 152 °C
COc1c(C(C)(C)C)cc(P(c2cc(C(C)(C)C)c(OC)c(C(C)(C)C)c2)c2ccccc2Br)cc1C(C)(C)C | 142 to 143 °C
COC(=O)C(O)C(Sc1cc(Oc2cccc(C)c2)ccc1N)c1ccc(OC)cc1 (stereo not given) | 112 to 115 °C
Cc1ccccc1C(=O)Nc1ccc(C(=O)N2Cc3cccn3Cc3ccccc32)cc1Cl | 176 to 178 °C
O=CNC1=NN(c2cccc(Cl)n2)CC1 | 190 to 192 °C
CC(=O)Nc1ccc(O)c(C)c1C | 184 to 185 °C
CC(CCCC(C)(C)O)C1CCC2C3CCC4(O)CC(=O)CCC4(C)C3CCC12C (stereo not given) | 215 to 217 °C
O=C(NCC12CC3CC(CC(C3)C1)C2)c1cc(Cl)ccc1Cl | 161 to 162 °C
CN1CCC(c2c[nH]c3ccc(C(=O)c4ccc5ccccc5c4)cc23)CC1 | 92 °C
CCNC(=O)CCC(=O)c1cnc2c(OC)cccc2c1Nc1ccccc1C | 88.5 to 90 °C

SMILES | melting point
[N-]=[N+]=NCC1Cc2c[nH]c3cccc(c23)C(=O)N1 (stereo not given) | 152 to 153 °C
COc1ccc(C#N)c(C(=O)Cl)c1 | 192 to 194 °C
O=C(O)CCCCN1CCC(Cc2ccccc2)CC1 | 148 to 151 °C
C=CCO[C@@H]1C[C@H]2[C@H](C(=O)O)[C@H]2[C@]1(N)C(=O)O | > 250 °C
CCOC(=O)c1nc2scc(COC(=O)c3ccc(CO)cc3)c2c(=O)[nH]1 | 196 °C
CC(=O)Nc1ccc(-c2ccc(NC(C)=O)cc2I)c(I)c1 | 300 to 301 °C
COc1ccc(NC(=O)CN2CCN(c3cccc(C(F)(F)F)c3)CC2)c([N+](=O)[O-])c1 | 98 to 100 °C
CC(C)c1ccc(C(=O)C2CCNCC2)cc1 | 55 to 57 °C
N#CNc1nccc(Oc2ccc(NC(=O)c3cc(F)cc(N4CCCCC4)c3)c3ccccc23)n1 | 160 to 162 °C
NC(=O)c1ccc(-c2ccc(Oc3ccc(F)cc3)cc2)[nH]1 | 218 to 220 °C
COC(=O)C1CSC=CCCCC(=O)N1 (stereo not given) | 160 to 161 °C
Fc1ccc(Cl)cc1-c1nnn[nH]1 | 124 °C
C=CCOc1cn(C)c2cc(F)ccc2c1=O | 158 to 159 °C
O=C(O)CN1C(=O)C(NC(=O)[C@@H](S)Cc2ccccc2)CCCc2ccccc21 (stereo not given in full) | 107 to 111 °C
COc1nc(C)cnc1NS(=O)(=O)c1cccnc1-c1ccc(C=CC(=O)O)cc1 | 233 to 235 °C
CN(C)S(=O)(=O)c1ccc2c(c1)C(Cl)c1ccccc1C=C2 (stereo not given) | 140 to 144 °C
Clc1nc2cc(Cl)c(Cl)c(Cl)c2[nH]1 | 243 to 244 °C
CN(C)C(=O)c1ccc(CN(C)C(=O)C23CC4CC(CC(C4)C2)C3)s1 | 145 to 146 °C
Cc1cc(C)c(C(O)c2cc(-n3ccnc3)ccc2C)c(C)c1 (stereo not given) | 190 to 191 °C
O=C(NCCO)/C(=C/c1ccc(OC(F)F)cc1)NC(=O)c1ccc(OCCc2ccc(Cl)cc2)cc1 | 160 to 162 °C
CCOC(=O)c1c(C)nn(-c2ccccc2[N+](=O)[O-])c1C | 128 to 130 °C
COc1cccc([C@H]2O[C@H](CC(=O)NCc3ccc(CC(=O)O)cc3)C(=O)N(CC(C)(C)CO)c3ccc(Cl)cc32)c1OC | 129 to 132 °C
COC(=O)NCC1CN(c2ccc(C3C=CS(=O)(=O)CC3)cc2)C(=O)O1 (stereo not given) | 196 to 197 °C
CCOC(=O)C(=O)Nc1ccc(C#N)c(C#N)c1 | 194 °C
CCOC(=O)c1[nH]c(C)cc1N | 85 to 87 °C

SMILES | melting point
CC(C)(CO)C(O)C(=O)NCc1cccnc1 (stereo not given) | 120 to 122 °C
CCOC(=O)C(Cc1ccc2ccccc2n1)(OC1CCCCO1)C(=O)OCC (stereo not given) | 75 to 78 °C
Cc1ccccc1-c1cn(-c2ccccc2)c2ncnc(N)c12 | 181 to 182 °C
O=C(O)CCC(=O)Nc1ccc(C(=O)N2CCCCc3ccccc32)cc1 | 192 °C
Clc1ccccc1-c1cnn2cnnc2n1 | 162 to 165 °C
O=c1ccc2cc(OC3O[C@H](CO)[C@@H](O)[C@H](O)[C@H]3O)c(OCc3ccccc3)cc2o1 (stereo not given in full) | 184 to 186 °C
CC1NC(=O)NN=C1c1ccc2sc(=O)n(CC(=O)N3CCN(CCO)CC3)c2c1 (stereo not given) | 248 to 250 °C
CCCc1cc(CC(=O)OC)ccc1OC1COc2ccc(C(C)=O)c(O)c2C1 (stereo not given) | 59 to 60 °C
COc1cc(OC)cc(N2CCN(C(=O)N(C)c3nc(C)c(C)nc3OC)CC2)c1 | 80 to 82 °C
COc1ccc2c(c1)c1c(n2Cc2ccc(C(C)(C)C)cc2)COC(=O)C1=O | 238 to 239 °C
CCOC(=O)c1cc2ccccc2n(-c2c(Cl)cccc2Cl)c1=N | 169 to 170 °C
COc1cc2c(c(OC)c1OC)C(=O)c1c-2n(C)c(=O)c2ccccc12 | 194 to 195 °C
CCOC(=O)C1=C(C)NC(C)=C(C(=O)OCC)C1c1ccccc1/C=C(\C)C(=O)OCC | 105 to 106 °C
CCOc1ccccc1OCC1(O)CCN(Cc2ccccc2)C1 (stereo not given) | 56.5 to 59 °C
N#Cc1cccc(CNc2cc(C(N)=O)c([N+](=O)[O-])cc2[N+](=O)[O-])c1 | 228 to 230 °C
BrC(Br)c1nccnc1C(Br)Br | 167 to 170 °C
CC(c1cccc(C(=O)c2ccccc2)c1)C(O)CC#N (stereo not given) | 130 °C
O=C(O)/C=C1\CCc2c(Cl)cc(F)cc21 | 229 to 230 °C
CCCn1c(=O)cc(N)n(-c2ccccc2C)c1=O | 226 to 228 °C
CCCc1c(OCCCS(=O)(=O)c2ccc(C(=O)O)cn2)ccc(C(C)=O)c1O | 177 to 179 °C
CCCc1nc2c(N)nc3cccnc3c2n1CCCCCC(N)=O | 216 to 218 °C
CCCCCCCCCc1ccc(C(=O)CC(=O)C(=O)O)cc1 | 90 to 91 °C
Cc1cc(C(=O)Nc2c(NC(=O)CCl)ccc3c2C(=O)c2ccccc2C3=O)c(C)o1 | 207 to 208 °C
OCC12CO[C@@H](c3ccc(F)cc3)N1[C@H](c1ccc(F)cc1)OC2 | 115 °C
CCOc1ccc(C(F)(F)F)cc1-c1cccn2nc(Nc3ccc4c(c3)CCN(CCS(C)(=O)=O)CC4)nc12 | 105 to 109 °C

SMILES | melting point
COc1cccc(Cl)c1C1Cc2c(ccn2C)C2C(=O)NC(=O)C12 (stereo not given) | 186 to 188 °C
O=C(c1ccc(CN2CC=CCC2)cc1)N1CCN2C(=O)OC(c3ccccc3)(c3ccccc3)C2C1 (stereo not given) | 189 to 191 °C
CCC(=O)N1Cc2cn[nH]c2-c2cc(N)ccc21 | 218 to 220 °C
N#CCCNC(=O)c1cccc(-c2cccc3nn(Cc4cccc(Cl)c4)cc23)c1 | 185 to 186 °C
O=C1NC(C(=O)NCCCO[N+](=O)[O-])CS1 (stereo not given) | 83 to 85 °C
O=C(Cn1c(-c2ccc(Cl)cc2)nc2cccnc21)Nc1nccs1 | > 260 °C
CC1(CCl)CN(C2CCN(c3cccc(OC(F)(F)F)c3)C2=O)C1=O (stereo not given) | 104 to 106 °C
CCOC(=O)c1c(O)c2c(C)csc2n(Cc2ccccc2)c1=O | 166 °C
CCCCc1ncc(C(=O)OCC)c(NCc2ccc(-c3ccccc3-c3nnnn3C(c3ccccc3)(c3ccccc3)c3ccccc3)cc2)n1 | 116 to 118 °C
Cc1cc(C)n2nc(SCc3ccccc3)nc2c1 | 69 to 70 °C
CCn1cc(C(=O)O)c(=O)c2c(F)c(F)c(F)c(F)c21 | 229 to 230 °C
COC1c2c(ccc3cnn(CC(C)N)c23)OCC1O (stereo not given) | 105 to 108 °C
CC(NC(Nc1cccc(C#N)c1)=C(C#N)S(=O)(=O)c1ccc(Cl)cc1)C(C)(C)C (stereo not given) | 80 to 82 °C
CC(C)(C)OC(=O)c1ncn2c1[C@@H]1CCN1C(=O)c1c(I)cccc1-2 | 249 to 250 °C
COc1cc(I)c(C=O)cc1OC(C)C | 75 to 76 °C
COc1cc2c(cc1OC)N(c1ccc([N+](=O)[O-])cc1)CC2 | 176 to 179 °C
CC1CCC2(C)C(=CCC3C4CC(Br)C(=O)C4(C)CCC32)C1 (stereo not given) | 186 to 188 °C
CC(C)Cc1c2c(nn1Cc1ccccc1)c(N)nc1ccccc12 | 194 to 196 °C
CC(=O)Nc1ccc(OC(C)=O)c(C)c1C | 155 to 156 °C
COc1ccccc1-c1cc(N)c(S(N)(=O)=O)cc1C | 172 to 175 °C
CCCCCN(C(=O)Oc1ccc(C(=O)O)cc1)c1ccc2c(c1)C(C)(C)CCC2(C)C | 100 to 102 °C
COc1ccc(NC(=O)c2ccc(COc3ccc4c(c3)CCC(CCN3CCCCC3)C4)cc2)cc1OC (stereo not given) | 178 to 180 °C
N#Cc1cccc2c1CCc1cc(C(F)(F)F)ccc1S2 | 113 to 114 °C
CC(C)(C(=O)O)c1nc2ccc(NCCCN3CCC(OC(c4ccccc4)c4ccccc4)CC3)nn2c1Cl | 133 to 135 °C
CCCCCc1ccc(-c2cnc(-c3ccc(C#N)cc3)nc2)cc1 | 126 °C
